Source: US20020165208A1, “Compositions and methods relating to hypertension” (priority 2000, published 2002)
Like-named read-outs stand apart in the source and are kept apart here.

Legend:
rat CYP 4A1 = target: T1, rat CYP 4A1 (Rattus norvegicus, UniProt P08516); assay: TST oxidation by rat CYP 4A1
T1 sequence (P08516 1-509): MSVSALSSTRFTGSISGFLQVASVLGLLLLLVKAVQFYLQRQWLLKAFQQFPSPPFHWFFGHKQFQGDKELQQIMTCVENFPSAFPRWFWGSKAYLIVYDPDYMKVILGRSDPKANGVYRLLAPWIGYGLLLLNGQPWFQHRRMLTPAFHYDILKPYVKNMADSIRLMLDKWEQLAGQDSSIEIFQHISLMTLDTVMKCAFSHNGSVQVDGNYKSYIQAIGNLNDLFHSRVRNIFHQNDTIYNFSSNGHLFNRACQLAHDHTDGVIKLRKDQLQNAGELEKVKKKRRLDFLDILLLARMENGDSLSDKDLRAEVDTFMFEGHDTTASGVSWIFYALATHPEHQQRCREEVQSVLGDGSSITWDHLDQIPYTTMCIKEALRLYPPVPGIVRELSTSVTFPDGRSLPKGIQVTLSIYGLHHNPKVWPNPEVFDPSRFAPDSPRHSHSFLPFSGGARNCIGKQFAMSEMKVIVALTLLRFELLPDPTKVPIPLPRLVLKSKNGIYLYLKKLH

[1] = system: Cyp 4a14 (+/+) and (−/−) mice; assay: Arterial blood pressure of conscious mice by right carotid artery catheter; assay type: in vivo, mouse; settings: for Effect on hypertensive phenotype (blood pressure): castrated Cyp 4a14 (−/−) mice, androgen-releasing pellets
Method: The arterial blood pressures of conscious 12- to 14-week-old mice were measured by means of a right carotid artery catheter (300-500 μm OD). After surgery (24-48 h), animals were allowed to become familiar with the environment and, after stabilization, their arterial blood pressures were monitored continuously for at least 30 min by using a pressure transducer. […] For measurements of afferent arteriolar diameter, male kidneys were perfused in vitro with a physiological salt solution supplemented with a mixture of L-amino acids (23), and the juxtamedullary vasculature was monitored continuously by videomicroscopy, as described (23). The relationship between afferent arteriolar diameter and perfusion pressure was determined at 80, 120, and 160 mm Hg. Perfusion pressure changes were followed by a 3-min equilibration before steady-state diameter measurements (23).

[2] = Plasma androgen levels (TST and DHT) by RIA in castrated, pellet-implanted mice; settings: for concentration at 10 days: male, mouse, in vivo, 5 mg DHT/day, Plasma DHT level, DHT-releasing pellets, ten days after implantation
rat CYP 4A2 = target: T2, rat CYP 4A2 (Rattus norvegicus, UniProt P20816); assay: TST oxidation by rat CYP 4A2
T2 sequence (P20816 5-504): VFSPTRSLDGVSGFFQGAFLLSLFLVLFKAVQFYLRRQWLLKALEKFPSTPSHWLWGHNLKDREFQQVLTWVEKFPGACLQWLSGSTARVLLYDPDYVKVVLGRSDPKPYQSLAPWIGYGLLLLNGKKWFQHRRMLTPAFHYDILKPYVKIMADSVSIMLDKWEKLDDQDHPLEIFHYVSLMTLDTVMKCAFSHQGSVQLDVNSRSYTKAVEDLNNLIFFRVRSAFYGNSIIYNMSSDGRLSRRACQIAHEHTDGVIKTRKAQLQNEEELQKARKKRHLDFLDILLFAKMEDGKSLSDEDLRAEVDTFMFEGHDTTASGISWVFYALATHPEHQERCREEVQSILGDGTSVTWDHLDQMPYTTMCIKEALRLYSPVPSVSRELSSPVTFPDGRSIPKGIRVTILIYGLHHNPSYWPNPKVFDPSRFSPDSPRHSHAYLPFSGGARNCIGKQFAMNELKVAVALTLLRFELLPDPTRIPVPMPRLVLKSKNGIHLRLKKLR

renal vasculature = settings: synthetic 20-HETE; cited from earlier work
recombinant Cyp 4a14 = target: T3, recombinant Cyp 4a14 (Mus musculus, UniProt O35728); assay: Substrate oxidation by purified recombinant Cyp 4a14; assay type: biochemical
T3 construct: A KpnI-XhoI cDNA fragment (1.9 kb) was subcloned into the pBlueBac IV vector; made in house; host or cells: Sf9 insect cells / baculovirus (pBlueBac IV, Invitrogen)
T3 sequence (O35728 5-507): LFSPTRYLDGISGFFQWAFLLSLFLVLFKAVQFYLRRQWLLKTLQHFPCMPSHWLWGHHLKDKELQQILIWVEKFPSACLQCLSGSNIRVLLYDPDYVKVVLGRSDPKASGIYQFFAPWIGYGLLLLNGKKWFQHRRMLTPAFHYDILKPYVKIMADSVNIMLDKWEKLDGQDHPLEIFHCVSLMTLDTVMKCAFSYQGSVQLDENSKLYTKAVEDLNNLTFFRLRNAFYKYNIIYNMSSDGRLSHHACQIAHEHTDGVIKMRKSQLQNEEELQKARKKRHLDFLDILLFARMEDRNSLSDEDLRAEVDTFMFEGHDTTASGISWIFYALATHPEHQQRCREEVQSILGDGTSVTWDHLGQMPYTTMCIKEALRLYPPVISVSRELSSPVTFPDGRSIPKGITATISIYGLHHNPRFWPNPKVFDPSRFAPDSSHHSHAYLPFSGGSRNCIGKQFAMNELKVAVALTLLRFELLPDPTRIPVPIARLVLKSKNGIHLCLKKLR
Method: (§1) Kidney microsomes were isolated from treated and nontreated Cyp 4a14 (+/+) and (−/−) mice (21), suspended (1-2 mg of protein/ml) in 0.05 M Tris·Cl (pH 7.4) containing 0.15 M KCl and 10 mM MgCl2, and incubated with [1^14C]AA or lauric acid (100 μM, 5 μCi/μmol each) and NADPH (1 mM) at 35° C. Reaction products were resolved and quantified as described (21). For antibody inhibition, microsomes were incubated (30 min at 22° C.) with rabbit anti-CYP 4A2 or nonimmune serum (0.1-1 mg of protein/ml) before enzymatic analysis. Recombinant Cyp 4a14 (0.1-1 μM) was incubated with [1-^14C]-labeled AA or lauric acid in the presence of purified P450 reductase, cytochrome b5, dilauroylphosphatidylcholine, and NADPH (1 mM), as described (15, 21). Urine collections (8-12 h) were incubated at 35° C. for 2-3 h with -glucoronidase (22) (Sigma) (1 mg/ml) and, after purification, the levels of 19- and 20-HETE were quantified by mass spectroscopy (22).

[3] = system: Arachidonic acid ω-hydroxylase of mouse kidney microsomes; settings: DHT pellets
Method: as §1

Cyp 4a12 transcripts = settings: DHT-treated castrated Cyp 4a14 (−/−) mice
Method: Top frame: Samples of total RNA (5-10 μg each) from the kidneys of control (A), castrated (B), castrated and DHT-treated (C) males or from control (D) and DHT-treated (E) females were fractionated by agar electrophoresis, transferred to nitrocellulose membranes, and hybridized to ^32P-labeled DNA probes (400-500 bp) coding for segments of the 3′-untranslated end of the Cyp 4a10, 4a12, and 4a14 cDNAs. After high-stringency washes, the membranes were exposed to x-ray films for 4, 2, or 21 h for male Cyp 4a10, 4a12, and 4a14, respectively, and 6, 21, or 12 h for female Cyp 4a10, 4a12, and 4a14, respectively. RNA loadings were normalized by using a -actin cDNA probe. […] Bottom frame: Dehydrated paraffin sections from the kidneys of control (A and A′), castrated (B and B′) and DHT-treated castrated male mice (C and C′) were hybridized to [^35S]-labeled riboprobes encoding 3′-end untranslated segments of the Cyp 4a12 cDNA. After washing, RNase A treatment, and dehydration, the sections were dipped in emulsion (IlfordK5; Knutsford, Cheshire, U.K.), exposed for 4-5 days at 4° C., and developed by using D-19 (Kodak). Slides were counterstained with hematoxylin. Photomicrographs were obtained by using either dark-field (3×) (A-C) or bright-field (100×) (A′, B′, and C′) optics.

C[C@]12CC[C@H]3[C@@H](CCC4=CC(=O)CC[C@@]43C)[C@@H]1CC[C@@H]2O [TST, testosterone]
TST oxidation (rat CYP 4A1): neither recombinant Cyp 4a14 nor rat CYPs 4A1 or 4A2 catalyzed TST oxidation | Effect on hypertensive phenotype (blood pressure) [1]: restored the hypertensive phenotype | Plasma TST level ([2]; castrated Cyp 4a14 (−/−) mice given TST, n=7): 1.8±0.04 ng TST/ml | TST oxidation (rat CYP 4A2): neither recombinant Cyp 4a14 nor rat CYPs 4A1 or 4A2 catalyzed TST oxidation

O=C(O)CCC/C=C\C/C=C\C/C=C\C/C=C\CCCCCO [20-HETE, 20-hydroxyarachidonic acid]
Renal vasoconstrictor activity (renal vasculature): powerful renal vasoconstrictor

CCCCCCCCCCCC(=O)O [lauric acid]
Lauric acid oxidation rate (recombinant Cyp 4a14; purified recombinant Cyp 4a14): 4.0±0.8 nmol product/min/nmol of P450

CCCCC/C=C\C/C=C\C/C=C\C/C=C\CCCC(=O)O [AA, arachidonic acid]
AA metabolism (recombinant Cyp 4a14; purified recombinant Cyp 4a14, even with cytochrome b5, excess P450 reductase, GSH, EDTA, and/or sodium cholate): did not metabolize AA

C[C@]12CCC(=O)C[C@@H]1CC[C@@H]1[C@@H]2CC[C@]2(C)[C@@H](O)CC[C@@H]12 [DHT, 5-dihydrotestosterone]
(20-HETE) % of total ([3]; castrated male (+/+) mice): 82 % of total | ω-Hydroxylase rate ([3]; castrated male (+/+) mice): 228 ± 35 picomoles of product formed per minute per milligram of microsomal protein | (20-HETE) % of total ([3]; castrated male (−/−) mice): 82 % of total | ω-Hydroxylase rate ([3]; castrated male (−/−) mice): 225 ± 23 picomoles of product formed per minute per milligram of microsomal protein | (20-HETE) % of total ([3]; female (+/+) mice): 76 % of total | ω-Hydroxylase rate ([3]; female (+/+) mice): 140 ± 3 picomoles of product formed per minute per milligram of microsomal protein | (20-HETE) % of total ([3]; female (−/−) mice): 77 % of total | ω-Hydroxylase rate ([3]; female (−/−) mice): 164 ± 3 picomoles of product formed per minute per milligram of microsomal protein | MABP ([1]; DHT-treated castrated Cyp 4a14 (+/+) mice, n=10): 137±4 mm of Hg | MABP ([1]; DHT-treated control (noncastrated) Cyp 4a14 (+/+) mice, n=10): 140±5 mm of Hg | MABP ([1]; DHT-treated female Cyp 4a14 (+/+) mice): 132±4 mm of Hg | MABP ([1]; DHT-treated female Cyp 4a14 (−/−) mice): 133±4 mm of Hg | Effect on hypertensive phenotype (blood pressure) [1]: restored the hypertensive phenotype | concentration at 10 days ([2]; castrated male Cyp 4a14 (+/+) mice): 2.64 ± 0.3 ng/mL | concentration at 10 days ([2]; castrated male Cyp 4a14 (−/−) mice): 2.01 ± 0.1 ng/mL | Cyp 4a12 transcript expression in kidney (Cyp 4a12 transcripts): abundant and selective expression of 4a 12 transcripts in the renal cortex
